# Results published in patent US9394297B2, “Amides as pim inhibitors” (AMGEN INC., priority 2012, dated 2016).
# Counter-ions that a name gives are not always drawn. Like-named read-outs stand apart in the source and are kept apart here.
# Key:
# Pim-1 = Pim-1 (Homo sapiens (Human), UniProt P11309); test: Pim-Mn enzyme assay (HTRF, 384-well), Pim-1; format: biochemical; settings: read-out: Pim-1-Mn IC50 IP
# Pim-2 = Pim-2 (Homo sapiens (Human), UniProt Q9P1W9); test: Pim-Mn enzyme assay (HTRF, 384-well), Pim-2; format: biochemical; settings: read-out: Pim-2-Mn IC50 IP
# Chain of Pim-2 (Q9P1W9 whole entry): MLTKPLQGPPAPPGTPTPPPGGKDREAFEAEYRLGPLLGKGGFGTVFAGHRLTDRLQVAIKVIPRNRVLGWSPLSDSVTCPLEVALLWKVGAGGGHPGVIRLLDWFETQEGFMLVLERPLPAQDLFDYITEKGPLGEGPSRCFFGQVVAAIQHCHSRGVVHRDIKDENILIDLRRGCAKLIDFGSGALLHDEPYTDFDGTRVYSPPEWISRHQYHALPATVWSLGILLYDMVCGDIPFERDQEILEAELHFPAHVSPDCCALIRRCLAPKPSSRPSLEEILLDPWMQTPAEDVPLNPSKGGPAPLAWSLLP
# KMS-12-BM cell lines = test: KMS12 #2 flow cytometry assay (phospho-BAD Ser112); format: cell-based; settings: Homo sapiens, 110 min; KMS-12-BM cells, pBAD Ser112 by flow cytometry, 110 min with compound; read-out: KMS-12-Flow IC50 IP
# [1] = Pim-1 enzyme 5 pM, ATP 1.5 μM, BAD (S112) 0.5 μM, HTRF, 22-point curve
# [2] = Pim-2 enzyme 0.5 pM, ATP 1.5 μM, BAD (S112) 0.5 μM, HTRF, 22-point curve
# Chain of Pim-1 (P11309 whole entry): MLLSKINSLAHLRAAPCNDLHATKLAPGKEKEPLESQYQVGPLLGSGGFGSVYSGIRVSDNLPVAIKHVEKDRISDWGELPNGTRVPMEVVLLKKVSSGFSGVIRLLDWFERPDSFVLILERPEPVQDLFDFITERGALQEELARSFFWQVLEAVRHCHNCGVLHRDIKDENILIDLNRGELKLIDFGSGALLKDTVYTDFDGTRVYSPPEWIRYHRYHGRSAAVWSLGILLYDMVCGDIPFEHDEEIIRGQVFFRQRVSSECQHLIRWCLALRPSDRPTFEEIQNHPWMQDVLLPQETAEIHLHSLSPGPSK
Structure (SMILES),IC50 (Pim-1; [1]),IC50 (Pim-2; [2]),IC50 (KMS-12-BM cell lines),IC50 (Pim-1),IC50 (Pim-2)
"CC(C)(C)Nc1nc2c(-c3cc4c([nH]3)CCNC4=O)cccc2nc1N [Example 304, 2-(2-amino-3-(tert-butylamino)quinoxalin-5-yl)-6,7-dihydro-1H-pyrrolo[3,2-c]pyridin-4(5H)-one]",0.791 nM,0.429 nM,87.6 nM,,
"Cc1nc2cccc(-c3cc4c([nH]3)C3(CC3)NC4=O)c2nc1NCC(F)F [Example 331, 2′-(3-((2,2-difluoroethyl)amino)-2-methylquinoxalin-5-yl)-1′H-spiro[cyclopropane-1,6′-pyrrolo[3,4-b]pyrrol]-4′(5′H)-one]",1.67 nM,1.12 nM,130 nM,,
"CC(C)(C)Nc1nc2c(-c3cc4c([nH]3)CCNC4=O)cccc2nc1N1CCC1 [Example 347, 2-(2-(1-azetidinyl)-3-(tert-butylamino)-5-quinoxalinyl)-1,5,6,7-tetrahydro-4H-pyrrolo[3,2-c]pyridin-4-one]",,,3660 nM,4.55 nM,10.5 nM
"Cc1nc2cccc(-c3cc4c([nH]3)[C@H](CO)NC4=O)c2nc1NC1CC1 [Example 367, (R)-2-(3-(cyclopropylamino)-2-methylquinoxalin-5-yl)-6-(hydroxymethyl)-5,6-dihydropyrrolo[3,4-b]pyrrol-4(1H)-one]",3.81 nM,3.68 nM,429 nM,,
"Cc1nc2cccc(-c3cc4c([nH]3)CCNC4=O)c2nc1NC(C)(C)CNCCS(C)(=O)=O [Example 342, 2-(3-((1,1-dimethyl-2-((2-(methylsulfonyl)ethyl)amino)ethyl)amino)-2-methyl-5-quinoxalinyl)-1,5,6,7-tetrahydro-4H-pyrrolo[3,2-c]pyridin-4-one]",28.1 nM,20.4 nM,11500 nM,,
"Cc1nc2cccc(-c3cc4c([nH]3)[C@H](C)NC4=O)c2nc1NC1(C)CC1 [Example 328, (6S)-6-methyl-2-(2-methyl-3-((1-methylcyclopropyl)amino)-5-quinoxalinyl)-5,6-dihydropyrrolo[3,4-b]pyrrol-4(1H)-one]",0.195 nM,0.201 nM,46 nM,,
"Cc1nc2cccc(-c3cc4c([nH]3)CNC4=O)c2nc1NC1(C)CC1 [Example 357, 2-(2-Methyl-3-((1-methylcyclopropyl)amino)quinoxalin-5-yl)-5,6-dihydropyrrolo[3,4-b]pyrrol-4(1H)-one]",,0.57 nM,15 nM,0.463 nM,
"CC(C)(C)Nc1nc2c(-c3cc4c([nH]3)CCNC4=O)cccc2nc1Cl [Example 345, 2-(3-(tert-butylamino)-2-chloro-5-quinoxalinyl)-1,5,6,7-tetrahydro-4H-pyrrolo[3,2-c]pyridin-4-one]",1 nM,2.25 nM,2730 nM,,
Cc1nccn1-c1cnc2cccc(-c3cc4c([nH]3)CCNC4=O)c2n1 [Example 320],176 nM,272 nM,> 40000 nM,,
"Cc1nc2cccc(-c3cc4c([nH]3)C3(CCOCC3)NC4=O)c2nc1NC(C)(C)C [Example 409, 2′-(3-(tert-butylamino)-2-methyl-5-quinoxalinyl)-2,3,5,6-tetrahydro-1′H-spiro[pyran-4,6′-pyrrolo[3,4-b]pyrrol]-4′(5′H)-one]",31.7 nM,62.6 nM,5760 nM,,
"C#Cc1nc2cccc(-c3cc4c([nH]3)CCNC4=O)c2nc1NC(C)(C)C [Example 307, 2-(3-(tert-butylamino)-2-ethynylquinoxalin-5-yl)-6,7-dihydro-1H-pyrrolo[3,2-c]pyridin-4(5H)-one]",1.63 nM,1.45 nM,590 nM,,
"Cc1nc2cccc(-c3cc(C(N)=O)c(C4CC4)[nH]3)c2nc1NC(C)(C)C [Example 418, 5-(3-(tert-butylamino)-2-methylquinoxalin-5-yl)-2-cyclopropyl-1H-pyrrole-3-carboxamide]",3.52 nM,7.79 nM,3150 nM,,
"C[C@H]1NC(=O)c2cc(-c3cccc4c(=O)n(C)c(NC5(C)CCC5)nc34)[nH]c21 [Example 465, 3-methyl-2-((1-methylcyclobutyl)amino)-8-((6R)-6-methyl-4-oxo-1,4,5,6-tetrahydropyrrolo[3,4-b]pyrrol-2-yl)-4(3H)-quinazolinone]",0.074 nM,0.13 nM,35 nM,,
"COCCN(CCOC)CCC(C)(C)Nc1nc2c(-c3cc4c([nH]3)CNC4=O)cccc2c(=O)n1C [Example 473, 2-((4-(bis(2-methoxyethyl)amino)-2-methylbutan-2-yl)amino)-3-methyl-8-(4-oxo-1,4,5,6-tetrahydropyrrolo[3,4-b]pyrrol-2-yl)quinazolin-4(3H)-one]",11.4 nM,36 nM,12400 nM,,
"Cc1nc2cccc(-c3cc4c([nH]3)C(C)N(C(=O)OC(C)(C)C)C4=O)c2nc1NC(C)(C)C (stereo not drawn) [Example 316, tert-butyl 2-(3-(tert-butylamino)-2-methylquinoxalin-5-yl)-6-methyl-4-oxo-4,6-dihydropyrrolo[3,4-b]pyrrole-5(1H)-carboxylate]",36 nM,75 nM,21500 nM,,
"Cc1nc2ccc(F)c(-c3cc4c([nH]3)CCNC4=O)c2nc1NC1(C)CCC1 [Example 376, 2-(6-fluoro-2-methyl-3-((1-methylcyclobutyl)amino)quinoxalin-5-yl)-6,7-dihydro-1H-pyrrolo[3,2-c]pyridin-4(5H)-one]",0.191 nM,0.136 nM,37.6 nM,,
"Cc1nc2ccc(F)c(-c3cc4c([nH]3)C3(CC3)NC4=O)c2nc1NC1CC1 [Example 283, 2′-(3-(cyclopropylamino)-6-fluoro-2-methylquinoxalin-5-yl)-1′H-spiro[cyclopropane-1,6′-pyrrolo[3,4-b]pyrrol]-4′(5′H)-one]",0.303 nM,0.278 nM,75.2 nM,,
"Cc1nc2ccc(F)c(-c3cc4c([nH]3)CNC4=O)c2nc1NC(C)(C)C [Example 296, 2-(3-(tert-butylamino)-6-fluoro-2-methyl-5-quinoxalinyl)-5,6-dihydropyrrolo[3,4-b]pyrrol-4(1H)-one]",0.508 nM,0.501 nM,36.2 nM,,
"Cc1nc2cccc(-c3cc4c([nH]3)[C@@H](C)NC4=O)c2nc1NC(C)(C)CO [Example 302, (6R)-2-(3-((2-hydroxy-1,1-dimethylethyl)amino)-2-methyl-5-quinoxalinyl)-6-methyl-5,6-dihydropyrrolo[3,4-b]pyrrol-4(1H)-one]",,,71.2 nM,1.84 nM,1.45 nM
"Cc1nc2ccc(F)c(-c3cc4c([nH]3)[C@@H]([C@H](C)O)NC4=O)c2nc1NC1CC1 [Example 353, (6S)-2-(3-(cyclopropylamino)-6-fluoro-2-methyl-5-quinoxalinyl)-6-((1S)-1-hydroxyethyl)-5,6-dihydropyrrolo[3,4-b]pyrrol-4(1H)-one]",2.26 nM,2.3 nM,109 nM,,
"Cc1nc2cccc(-c3cc4c([nH]3)CCNC4=S)c2nc1NC(C)(C)C [Example 292, 2-(3-(tert-butylamino)-2-methylquinoxalin-5-yl)-6,7-dihydro-1H-pyrrolo[3,2-c]pyridine-4(5H)-thione]",1.61 nM,2.54 nM,657 nM,,
"CCOc1cnc2cccc(-c3cc4c([nH]3)CCNC4=O)c2n1 [Example 337, 2-(3-ethoxy-5-quinoxalinyl)-1,5,6,7-tetrahydro-4H-pyrrolo[3,2-c]pyridin-4-one]",71.9 nM,54.6 nM,6920 nM,,
"Cc1nc2cccc(-c3cc4c([nH]3)CCN(CO)C4=O)c2nc1NC(C)(C)C [Example 299, 2-(3-(tert-butylamino)-2-methylquinoxalin-5-yl)-5-(hydroxymethyl)-6,7-dihydro-1H-pyrrolo[3,2-c]pyridin-4(5H)-one]",7 nM,9 nM,> 40000 nM,,
"Cc1nc2ccc(F)c(-c3cc4c(=O)[nH]ccc4[nH]3)c2nc1NC(C)(C)C [Example 371, 2-(3-(tert-butylamino)-6-fluoro-2-methylquinoxalin-5-yl)-1H-pyrrolo[3,2-c]pyridin-4(5H)-one 2,2,2-trifluoroacetate salt]",,,148 nM,0.246 nM,0.0667 nM
"CC(=O)Nc1nc2c(-c3cc4c([nH]3)CCNC4=O)cccc2nc1C [Example 445, N-(3-methyl-8-(4-oxo-4,5,6,7-tetrahydro-1H-pyrrolo[3,2-c]pyridin-2-yl)quinoxalin-2-yl)acetamide]",27.9 nM,20.1 nM,> 40000 nM,,
"Cc1nc2cccc(-c3cc4c([nH]3)CCNC4=O)c2nc1NC(C)c1ccccn1 (stereo not drawn) [Example 321, 2-(2-methyl-3-((1-(pyridin-2-yl)ethyl)amino)quinoxalin-5-yl)-6,7-dihydro-1H-pyrrolo[3,2-c]pyridin-4(5H)-one]",98.6 nM,156 nM,> 40000 nM,,
"Cc1nc2cccc(-c3cc4c([nH]3)[C@@H](C)NC4=O)c2nc1NCC(F)(F)F [Example 294, (6R)-6-methyl-2-(2-methyl-3-((2,2,2-trifluoroethyl)amino)-5-quinoxalinyl)-5,6-dihydropyrrolo[3,4-b]pyrrol-4(1H)-one]",1.23 nM,2.23 nM,165 nM,,
"CC(C)(C)Nc1nc2c(-c3cc4c([nH]3)CCNC4=O)cccc2nc1/C=N/O [Example 308, (E)-3-(tert-butylamino)-5-(4-oxo-4,5,6,7-tetrahydro-1H-pyrrolo[3,2-c]pyridin-2-yl)quinoxaline-2-carbaldehyde oxime]",1.05 nM,1.27 nM,177 nM,,
